Measured values from ChEMBL document CHEMBL1145733, “N-isonicotinoyl-(L)-4-aminophenylalanine derivatives as tight binding VLA-4 antagonists” (Bioorg Med Chem Lett, 2003).

How the values were obtained:
[1] = target: T1, Integrin alpha-4/beta-1 (Homo sapiens, UniProt P05556+P13612); test: Inhibition of [125I]VCAM-Ig binding to VLA-4 of Jurkat cells in the presence of [Ca2+]; format: cell-based
[2] = target: T1, Integrin alpha-4/beta-1; test: Inhibition of [125I]VCAM-Ig binding to VLA-4 of Jurkat cells in the presence of Mn2+; format: cell-based
[3] = target: T1, Integrin alpha-4/beta-1; test: Dissociation from Very late antigen 4 (VLA-4); format: protein-complex assay
[4] = target: T1, Integrin alpha-4/beta-1; test: Inhibition of VLA-4 binding in Jurkat cells in the presence of Mg2+; format: cell-based
[5] = Half life period was determined in rhesus monkey at a dose of 1 mg/kg by iv administration; format: ADME, organism-based; parameters: dose 1 mg/kg, route intravenous; conditions: cercopithecidae, in vivo
[6] = Oral bioavailability in Beagle dog at a dose of 2 mg/kg by po administration; format: ADME, organism-based, Canis lupus familiaris; conditions: in vivo
[7] = Plasma clearance was determined in rhesus monkey at a dose of 1 mg/kg by iv administration; format: ADME, organism-based; parameters: dose 1 mg/kg, route intravenous; conditions: cercopithecidae, read-out: Clp
[8] = Half life period was determined in Beagle dog at a dose of 1 mg/kg by iv administration; format: ADME, organism-based, Canis lupus familiaris; parameters: dose 1 mg/kg, route intravenous; conditions: in vivo
[9] = Unbound plasma was determined in rhesus monkey at a dose of 1 mg/kg by iv administration; format: ADME, organism-based; parameters: dose 1 mg/kg, route intravenous; conditions: cercopithecidae, in vivo
[10] = Plasma clearance was determined in Sprague-Dawley rats at a dose of 1 mg/kg by iv administration; format: ADME, organism-based; parameters: dose 1 mg/kg, route intravenous; conditions: rat, read-out: Clp
[11] = Plasma clearance was determined in Beagle dog at a dose of 1 mg/kg by iv administration; format: ADME, organism-based, Canis lupus familiaris; parameters: dose 1 mg/kg, route intravenous; conditions: read-out: Clp
[12] = Oral bioavailability in Sprague-Dawley rats at a dose of 2 mg/kg by po administration; format: ADME, organism-based; conditions: rat, in vivo
[13] = system: Rattus norvegicus; test: Unbound plasma was determined in Sprague-Dawley rats at a dose of 1 mg/kg by iv administration; format: ADME, organism-based; parameters: dose 1 mg/kg, route intravenous; conditions: in vivo
[14] = Oral bioavailability in rhesus monkey at a dose of 2 mg/kg by po administration; format: ADME, organism-based, Macaca mulatta; conditions: in vivo
[15] = system: Canis familiaris; test: Unbound plasma was determined in Beagle dog at a dose of 1 mg/kg by iv administration; format: ADME, organism-based, Canis lupus familiaris; parameters: dose 1 mg/kg, route intravenous; conditions: in vivo
[16] = Half life period was determined in Sprague-Dawley rats at a dose of 1 mg/kg by iv administration; format: ADME, organism-based; parameters: dose 1 mg/kg, route intravenous; conditions: rat, in vivo

T1 sequence (P05556 whole entry): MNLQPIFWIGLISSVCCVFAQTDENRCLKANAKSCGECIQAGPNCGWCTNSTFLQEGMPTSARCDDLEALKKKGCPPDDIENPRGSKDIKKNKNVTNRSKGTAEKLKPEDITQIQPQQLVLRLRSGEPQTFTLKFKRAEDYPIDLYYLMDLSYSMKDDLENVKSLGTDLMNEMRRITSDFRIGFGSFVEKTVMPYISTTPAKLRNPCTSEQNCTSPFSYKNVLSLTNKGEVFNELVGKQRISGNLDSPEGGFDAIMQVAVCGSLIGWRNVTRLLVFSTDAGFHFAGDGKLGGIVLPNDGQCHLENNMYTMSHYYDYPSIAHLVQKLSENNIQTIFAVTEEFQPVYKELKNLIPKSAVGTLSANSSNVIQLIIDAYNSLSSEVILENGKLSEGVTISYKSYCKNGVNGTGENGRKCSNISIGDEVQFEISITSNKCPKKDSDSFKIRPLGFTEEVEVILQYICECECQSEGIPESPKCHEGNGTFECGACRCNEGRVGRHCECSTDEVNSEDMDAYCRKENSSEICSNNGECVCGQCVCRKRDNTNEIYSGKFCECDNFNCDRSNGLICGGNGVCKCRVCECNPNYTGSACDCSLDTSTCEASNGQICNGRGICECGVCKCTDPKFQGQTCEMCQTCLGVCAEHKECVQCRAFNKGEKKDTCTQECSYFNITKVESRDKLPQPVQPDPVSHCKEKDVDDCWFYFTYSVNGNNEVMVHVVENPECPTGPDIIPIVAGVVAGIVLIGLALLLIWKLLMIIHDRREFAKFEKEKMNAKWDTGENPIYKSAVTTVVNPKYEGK
T1 sequence (P13612 whole entry): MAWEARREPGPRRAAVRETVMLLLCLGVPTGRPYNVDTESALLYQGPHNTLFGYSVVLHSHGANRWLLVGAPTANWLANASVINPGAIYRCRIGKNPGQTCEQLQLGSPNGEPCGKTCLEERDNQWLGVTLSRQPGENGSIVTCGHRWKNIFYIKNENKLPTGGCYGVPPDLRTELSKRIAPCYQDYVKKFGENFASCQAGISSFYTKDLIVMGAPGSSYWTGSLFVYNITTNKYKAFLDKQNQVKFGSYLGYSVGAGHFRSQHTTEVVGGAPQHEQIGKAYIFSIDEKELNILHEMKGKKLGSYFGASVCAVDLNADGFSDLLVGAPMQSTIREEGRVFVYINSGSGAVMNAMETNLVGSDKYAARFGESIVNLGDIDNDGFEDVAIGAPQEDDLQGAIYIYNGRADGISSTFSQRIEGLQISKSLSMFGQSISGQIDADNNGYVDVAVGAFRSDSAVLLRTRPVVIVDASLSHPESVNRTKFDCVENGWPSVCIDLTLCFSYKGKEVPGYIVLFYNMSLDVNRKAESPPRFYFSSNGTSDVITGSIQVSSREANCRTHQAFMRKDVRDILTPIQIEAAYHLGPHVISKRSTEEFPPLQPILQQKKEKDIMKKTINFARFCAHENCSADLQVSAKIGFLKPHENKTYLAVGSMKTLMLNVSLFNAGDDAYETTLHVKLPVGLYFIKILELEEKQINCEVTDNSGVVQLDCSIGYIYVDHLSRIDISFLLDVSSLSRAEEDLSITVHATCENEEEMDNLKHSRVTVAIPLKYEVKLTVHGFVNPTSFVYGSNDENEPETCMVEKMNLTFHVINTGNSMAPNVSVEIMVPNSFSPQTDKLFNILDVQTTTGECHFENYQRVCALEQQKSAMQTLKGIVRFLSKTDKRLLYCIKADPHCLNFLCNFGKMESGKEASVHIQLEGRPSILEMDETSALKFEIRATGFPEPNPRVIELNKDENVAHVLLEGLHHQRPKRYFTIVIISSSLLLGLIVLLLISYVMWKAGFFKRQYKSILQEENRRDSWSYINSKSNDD

Compound	IC50 [1]	IC50 [2]	Bound [3]	IC50 [4]	other results
C[n+]1cc(Cl)c(C(=O)Nc2ccc(C[C@H](NC(=O)[C@]3(C)CCCN3S(=O)(=O)c3cc(Cl)cc(Cl)c3)C(=O)O)cc2)c(Cl)c1	0.1 nM	0.19 nM	61%	0.1 nM	
C[n+]1ccc(C(=O)Nc2ccc(C[C@H](NC(=O)[C@]3(C)CCCN3S(=O)(=O)c3cc(Cl)cc(Cl)c3)C(=O)O)cc2)c(Cl)c1	0.31 nM	0.16 nM	0%	0.31 nM	
C[C@@]1(C(=O)N[C@@H](Cc2ccc(NC(=O)c3c(Cl)ccnc3Cl)cc2)C(=O)O)CCCN1S(=O)(=O)c1cc(Cl)cc(Cl)c1	0.11 nM	0.11 nM	57%	0.11 nM	half-life [5]: 2.3 h; bioavailability [6]: 0.4%; clearance [7]: 0.45 L/h/kg; half-life [8]: 0.73 h; Unbound plasma [9]: 0.15%; clearance [10]: 0.114 L/h/kg; clearance [11]: 1.92 L/h/kg; bioavailability [12]: 1.6%; Unbound plasma [13]: 0.2%; bioavailability [14]: 4%; Unbound plasma [15]: 2.2%; half-life [16]: 1.7 h
O=C(Nc1ccc(C[C@H](NC(=O)[C@@H]2CCCN2S(=O)(=O)c2cccc(Cl)c2)C(=O)O)cc1)c1c(Cl)cncc1Cl	0.1 nM	0.09 nM	37%	0.1 nM	
C[C@@]1(C(=O)N[C@@H](Cc2ccc(NC(=O)c3cnccc3Cl)cc2)C(=O)O)CCCN1S(=O)(=O)c1cc(Cl)cc(Cl)c1	0.21 nM	0.14 nM	26%	0.21 nM	
COc1cccc(OC)c1-c1ccc(C[C@H](NC(=O)[C@]2(C)CCCN2S(=O)(=O)c2cc(Cl)cc(Cl)c2)C(=O)O)cc1	0.09 nM		1%	0.09 nM	
CSc1cnccc1C(=O)Nc1ccc(C[C@H](NC(=O)[C@]2(C)CCCN2S(=O)(=O)c2cc(Cl)cc(Cl)c2)C(=O)O)cc1	1.56 nM	0.36 nM	0%	1.56 nM	

Continued, in another order:

IC50 [1]	IC50 [2]	Bound [3]	IC50 [4]	Compound	other results
0.09 nM	0.1 nM	43%	0.09 nM	COc1cc(CN2CCCC2)cc(OC)c1-c1ccc(C[C@H](NC(=O)[C@]2(C)CCCN2S(=O)(=O)c2cc(Cl)cc(Cl)c2)C(=O)O)cc1	
0.07 nM	0.1 nM	62%	0.07 nM	O=C(Nc1ccc(C[C@H](NC(=O)[C@@H]2CCCN2S(=O)(=O)c2cc(Cl)cc(Cl)c2)C(=O)O)cc1)c1c(Cl)cncc1Cl	
0.25 nM	0.27 nM	12%	0.25 nM	C[C@@]1(C(=O)N[C@@H](Cc2ccc(NC(=O)c3cccnc3)cc2)C(=O)O)CCCN1S(=O)(=O)c1cc(Cl)cc(Cl)c1	
0.08 nM	0.13 nM	40%	0.08 nM	COc1ccnc(Cl)c1C(=O)Nc1ccc(C[C@H](NC(=O)[C@]2(C)CCCN2S(=O)(=O)c2cc(Cl)cc(Cl)c2)C(=O)O)cc1	
0.08 nM	0.1 nM	61%	0.08 nM	C[C@@]1(C(=O)N[C@@H](Cc2ccc(NC(=O)C3=C(Cl)CC(=O)N=C3Cl)cc2)C(=O)O)CCCN1S(=O)(=O)c1cc(Cl)cc(Cl)c1	
0.13 nM	0.15 nM	19%	0.13 nM	O=C(Nc1ccc(C[C@H](NC(=O)[C@@H]2CCCN2S(=O)(=O)c2ccccc2)C(=O)O)cc1)c1c(Cl)cncc1Cl	
0.15 nM	0.21 nM	15%	0.15 nM	C[C@@]1(C(=O)N[C@@H](Cc2ccc(NC(=O)c3c(Cl)cccc3Cl)cc2)C(=O)O)CCCN1S(=O)(=O)c1cc(Cl)cc(Cl)c1	
